Test results taken from US12480155B2, “Nicking enzymes” (LumiraDx UK Ltd., priority 2019, dated 2025).
Where two headings read alike, the source gives them in different places.

Key:
[1] = system: STAR reaction (Nt.BstNBI nicking endonuclease, Bst X DNA polymerase; Chlamydia trachomatis cryptic plasmid target)
Description: The STAR mixture contained two primers, polymerase, and nicking enzyme (referenced above). Reactions were performed in a final volume of 25 μl, including 1.0 μM of the forward primer, 0.5 μM of the reverse primer, 0.25 μM molecular beacon, 10 μl STAR Master Mix and 5 μl DNA sample. STAR master mix contained the following reagents; 12 mM MgSO4, 90 mM Tris-HCl (pH 8.5), 300 μM each dNTPs, 20 mM (NH4)2SO4, 15 mM Na2SO4, 2 mM. DTT, 0.01% Triton X-100, 15 U nicking endonuclease, 60 U polymerase. […] The temperature of the reactions was controlled, with a relatively high initiation temperature followed by a gradual drop over time, for optimal STAR activity. The initiation phase, primarily involving polymerase activity, was at the elevated temperature of 60° C. for 15 seconds. […] Amplification and STAR product detection were performed with the Agilent Mx3005P qPCR apparatus (Agilent).

[2] = system: Nb.BbvCI nicking endonuclease; experiment: Nicking Enzyme Activity Assay (NAA) with Nb.BbvCI under isothermal condition; type: biochemical; conditions: 40 ml RbCl (so in the source), 1x CutSmart Buffer, isothermal 50 °C; four replicates vs control
Description: The assay comprises use of the following oligonucleotide probe (DLPFQ) (SEQ ID NO: 10 5′/56-FAM/[…].[…]/3BHQ_1/-3′). The oligonucleotide forms a molecular beacon-like probe in solution. […] Upstream of the nicking enzyme binding site is a 5′ fluorophore.
The reactions are run using an isothermal temperature profile, 50° C. […] Each reaction assessed kinetics, enzyme performance, and signal fluorescence.

Bst X DNA polymerase = conditions: 15 mM Rb2SO4 vs no added rubidium; STAR temperature profile; six replicates
Description: The NEF has a 5′ fluorophore, POQ has a 3′ quenching moiety that absorbs the photons released by the 5′ template oligo fluorophore. The PO serves as the initiation site for a strand displacement polymerase to extend and displace the quenching oligo allowing for fluorescence to be generated due to the quenching oligo no longer being in proximity to the template oligo.
The basic PAA mixture contains a template oligo (NEF) with a 5′-FAM modification, a priming oligo (PO) which anneals to the template's 3-end, a quenching oligo (POQ) with a 3′-BHQ1 modification which anneals to the template's 5′-end, and a polymerase (referenced above). The reactions were performed in a final volume of 25 μl, including 0.2 μM NEF, 0.3 μM PO, 0.7 μM POQ, and 1×PAA Master Mix. At a 1× concentration, the PAA master mix contained the following reagents; 12.5 mM MgSO4, 90 mM Tris-HCl (pH 8.5), 300 μM each dNTPs, 15 mM NH4CH3CO2, 15 mM Na2SO4, 5 mM DTT, 0.2 mg/ml BSA, 0.02% Triton X-100, 15 mM Rb2SO4, 10 mM L-Threonine, and 0.03 U/μl polymerase. […] The PAA was performed with the Agilent Mx3005P qPCR apparatus (Agilent). […] Each reaction assessed amplification kinetics, enzyme performance, and signal fluorescence.

[3] = system: isothermal amplification reaction (nicking endonuclease, polymerase; primers of Example 1)
Description: The basic mixture contains two primers, polymerase, and nicking enzyme (referenced above). […] The reactions were performed in a final volume of 25 μM, including 1.0 μM of the forward primer, 0.5 μM of the reverse primer, 0.25 μM molecular beacon, 10 μM Master Mix and 5 μl DNA sample. The master mix contained the following reagents; 12.5 mM MgSO4, 90 mM Tris-HCl (pH 8.5), 300 μM each dNTPs, 40 mM NH4OAc, 15 mM Na2SO4, 2 mM DTT, 0.01% Triton X-100, 15U nicking endonuclease, 60 U polymerase. […] Amplification and product detection were performed with the Agilent Mx3005P qPCR apparatus (Agilent).

[4] = system: Nt.BstNBI nicking endonuclease; conditions: 15 mM Rb2SO4 vs no rubidium; STAR temperature profile; six replicates
Description: The template oligo has a nicking site for nicking endonuclease activity and downstream a 3′ quencher. The priming oligo has the complementary nicking site sequence and a 5′ fluorophore. When in solution the two form a complex that completes a nicking binding site allowing for the nicking endonuclease to cut. The oligonucleotide quencher 5′ of the nick site, following a nick by a nicking endonuclease, now has a low melting temperature. Because the reaction is performed above this melting temperature, the shortened fragment containing the quencher is released from the complex generating fluorescence.
The basic NAA mixture contained the template oligo (NEQ) with a 3′ modification, and the priming oligo (POF) with a 5′-FAM modification which anneals to the template, and a nicking endonuclease (referenced above). The reactions were performed in a final volume of 25 μl, including 1.3 μM NEQ, 1.6 μM POE, and 1×NAA Master Mix. At a 1× concentration, the NAA master mix contained the following reagents; 12.5 mM MgSO4, 90 mM Tris-HCl (pH 8.5), 15 mM NH4CH3CO2, 15 mM Na2SO4, 5 mM DTT, 0.2 mg/ml BSA, 0.02% Triton X-100, 15 mM Rb2SO4, 10 mM L-Threonine, and 0.008 U/μl nicking endonuclease. […] The NAA was performed with the Agilent Mx3005P qPCR apparatus (Agilent). […] Each reaction assessed amplification kinetics, enzyme performance, and signal fluorescence.

[5] = system: Nb.BsmI nicking endonuclease; conditions: 20 mM Rb2SO4 vs control; STAR temperature profile; average of six replicates
Description: The modified NAA was run with and without rubidium using the following conditions.
The Nb.BsmI recognition sequence is GAATG_CN. (The underscore indicates the nick site). The oligonucleotide contains self-complementary sequences and forms a molecular beacon-like probe in solution. The probe has a nicking site for nicking endonuclease activity and a 3′ quencher. Upstream of the nicking binding site is a 5′ fluorophore. When in solution a complex is formed that completes a nicking binding site allowing for the nicking endonuclease to nick. Nb.BsmI is a bottom cutter and therefore will cut on the opposite strand of the nicking binding site. The oligonucleotide quencher 3′ of the nick site, following a nick by a nicking endonuclease, now has a low melting temperature. Because the reaction is performed above this melting temperature, the shortened fragment containing the quencher is released from the complex, generating fluorescence.
The basic NAA mixture contained the probe oligo (DLPFQ) with a 5′-FAM modification and a 3′-BHQ1 modification which folds on itself, and a nicking endonuclease (referenced above). […] The reactions were performed in a final volume of 25 μl, including different concentrations of DLPFQ depending on the nicking enzyme used, and 1×NAA Master Mix. […] Each reaction assessed kinetics, enzyme performance, and signal fluorescence.

`CC(=O)[O-].CC(=O)[O-].[Sr+2]` [strontium acetate] was tested, and the “effect on STAR (ion replacement)” value ([1]; 10 mM) was “possibly slightly slowed the reaction” and the “effect on STAR (ion replacement)” value ([1]; 20 and 50 mM) was “fully inhibited the reaction”.

For `CC(=O)[O-].[K+]` [potassium acetate], the “effect on STAR (ion replacement)” value ([1]; salts replaced in buffer, various concentrations) was “neither of which improved STAR”.

`[Cl-].[Rb+]` [rubidium chloride] was tested, and the “nicking enzyme activity (fluorescence)” value [2] was “increases the activity of Nb.BbvCI nicking endonuclease”.

For `CC(=O)[O-].CC(=O)[O-].CC(=O)[O-].[Sc+3]` [scandium acetate], the “effect on STAR (ion replacement)” value ([1]; all concentrations) was “fully inhibited the reaction”.

For `O=S(=O)([O-])[O-].[Rb+].[Rb+]` [rubidium sulfate], the “polymerase activity (fluorescence)” value (Bst X DNA polymerase) was “does not change the activity of the polymerase in any significant manner”, the “performance of 10 copy isothermal reaction” value ([3]; 15 mM of rubidium sulfate (so in the source), compared with 100 copy reaction without rubidium sulfate) was “made the 10 copy reaction perform similar to the 100 copy reaction without rubidium sulfate” and the “effect on isothermal amplification reaction” value ([3]; 20 mM rubidium sulfate vs without, 100 and 10 copies template, average of 4 replicates) was “improves the isothermal reaction”. For the same compound, the “tightness of replicates in isothermal amplification” value ([3]; with vs without rubidium, data not shown) was “tighter than without rubidium”, the “nicking enzyme activity (fluorescence)” value [4] was “significantly increased the activity of the nicking enzyme” and the “grouping of replicate sample results in STAR” value ([1]; 50 mM rubidium sulfate vs control group) was “more tightly grouped than with the control group”. For the same compound, the “effect on STAR amplification” value ([1]; 50 mM rubidium sulfate vs no rubidium control) was “detrimental to amplification, slowing the reaction”, the “effect on STAR reactions” value ([1]; 10 to 20 mM rubidium sulphate vs no rubidium control, 100 copies target) was “improved STAR reactions” and the “nicking enzyme activity (fluorescence)” value [5] was “increases the activity of this other nicking endonuclease”.
